Patent publication US20240167922A1, “TRANSPARENTIZING REAGENT AND TRANSPARENTIZING METHOD” (KYOTO UNIVERSITY, priority 2021, published 2024)

What was measured:
[1] = water at 20° C.; cited from earlier work
[2] = Measurement of opacity of noodle samples after optical clearing; conditions: Example 6: 3M to 4M aqueous solutions, 30° C. for 3 days after fixation
Procedure: ClearSee was prepared by mixing xylitol powder [Nacalai tesque, 36718-65; final concentration 10% (wt/vol)], sodium deoxycholate [Nacalai tesque, 10712-96; final concentration 15% (wt/vol)], and urea [Nacalai tesque, 35905-35; final concentration 25% (wt/vol)] in Milli-Q water.
The opacity of the samples was determined using a cooled CCD camera system (GE Healthcare, ImageQuant LAS 4000). […] Then, the sample was digitised by the CCD camera which was cooled to −25° C. with a lens (F0.85 43 mm) using white transillumination. […] The opacity of the sample was calculated by normalising the gray value of the sample with that of the background using free software (Fiji). The contrast C, which represents the difference in gray level, was calculated according to the following equation (1) from an image of the samples laid with a film on which a grid pattern was printed. The plot profile was measured using Fiji software.
ClearSee is a reagent that is able to make plant samples transparent as described in Non-patent Literature 1, and aims to remove autofluorescence of chlorophyll from green leaves. To evaluate the transparency of the noodle samples, the opacity of the transmitted light image was quantified.
The noodle samples were fixed and then immersed in each clearing reagent at 30° C. for 3 days, and the opacity was measured. As controls, the opacity of the noodle sample just after fixation and the noodle sample immersed in D-PBS instead of the clearing reagent was measured. […] Values in the figure represent mean±SD of three independent experiments.

[3] = Test for decolorizing agent (opacity); conditions: pasta immersed in the agent 5 days, then SoROCS 3 days; mean±SD of three experiments; water control 1.079±0.002
Procedure: Pasta samples made from durum wheat were fixed in 4% (wt/wt) PFA/PBS at 30° C. for 1.5 hours, and washed twice in D-PBS. […] Values represent mean ±SD of three independent experiments.

[4] = Test for defatting agent (opacity); conditions: fried noodles immersed in the agent 5 days, then SoROCS 3 days; mean±SD of three experiments; water control 1.120±0.006
Procedure: Wheat noodle samples fried in vegetable oil were fixed in 4% (wt/wt) PFA/PBS at 30° C. for 1.5 hours and washed twice in D-PBS. […] Values represent mean ±SD of three independent experiments.

| Compound | optical clearing of noodle samples [2] | also measured |
| --- | --- | --- |
| O=C([O-])c1ccccc1O.[Na+] [sodium salicylate] |  | solubility in water [1]: about 4.125 M |
| O=C([O-])c1ccccc1C(=O)[O-].[Na+].[Na+] [disodium phthalate] | cleared |  |
| Oc1cccc(O)c1O [pyrogallol] | cleared |  |
| O=C([O-])c1cccc(O)c1.[Na+] [sodium 3-hydroxybenzoate] | cleared |  |
| CCCCC(O)CO (stereo not shown) [1,2-hexanediol] |  | opacity [3]: 1.041±0.002 |
| O=C([O-])c1ccccc1O.[Li+] [lithium salicylate] | cleared |  |
| Oc1cccc(O)c1 [resorcinol] | cleared |  |
| Oc1ccccc1O [catechol] | cleared |  |
| C=C(C)[C@H]1CC=C(C)CC1 [limonene] |  | opacity [4]: 1.089±0.004 |
| O=C([O-])c1ccc(O)cc1.[Na+] [sodium 4-hydroxybenzoate] | cleared |  |
